Consider 39 compounds from ChEMBL document CHEMBL4483862, “Open-source discovery of chemical leads for next-generation chemoprotective antimalarials” (2018).

SMILES strings stand for the structures. pIC50: −log10 of the molar value. Where only a bound is given, the exact number is not on record here.

The experiment deals with Plasmodium berghei. Nature of the experiment: Luciferase/luciferin-expressing antifolate-resistant parasites were used to infect a culture of HepG2 cells that were pre-incubated with compounds. Infected hepatocytes emit light due to the luciferase reaction. Assay results are presented as the percent inhibition of light emission compared to control. […]. The class given is functional. Conditions: sporozoite; for IC90: read-out: LUCIFERASE INFECTION ASSAY - IC90.

Where [1] appears, read: read-out: LUCIFERASE INFECTION ASSAY - IC50.

Broadly, the pIC50 is −log10 of the IC50, conventionally taken in molar units. The IC90 is the concentration at which the effect reaches the 90% level. As for `O=C1C=CC(=O)N1c1cccc(Cl)c1Cl`, the IC90 was above 13.6 µM. Further, the negative logarithm of the IC50 (pIC50) (FFLUC_HILL_SLOPE 90.3, FFLUC_R_SQUARED 0.368, read-out: LUCIFERASE INFECTION ASSAY - IC50) is below 4.87.

Take `O=C(O)c1c2c(nc3ccccc13)/C(=C/c1ccccc1Cl)CC2`: the IC90 was above 10 µM. For the same compound, the pIC50 (PBLUC_HILL_SLOPE 0.525, PBLUC_R_SQUARED 0.706, read-out: LUCIFERASE INFECTION ASSAY - IC50) is 6.24.

In the case of `CC(=O)Nc1cccc(-c2ccc3ncc(-c4ccccc4)n3n2)c1`, the IC90 was above 10 µM. The negative logarithm of the IC50 (pIC50) (HEPG2TOX_HILL_SLOPE 0.716, HEPG2TOX_R_SQUARED 0.978, PBLUC_HILL_SLOPE 1, PBLUC_R_SQUARED 0.535, read-out: LUCIFERASE INFECTION ASSAY - IC50) is 5.41.

Consider `CC1(C(=O)NCc2ccco2)Cc2c(-c3ccc4c(c3)OCO4)ccnc2O1` (stereo not drawn), for which the concentration for an effect of 90% (IC90) was above 8.72 µM. Moreover, the pIC50 (FFLUC_HILL_SLOPE 0.436, FFLUC_R_SQUARED 0.176, HEPG2TOX_HILL_SLOPE 1.94, HEPG2TOX_R_SQUARED 0.783, PBLUC_HILL_SLOPE 1.2, PBLUC_R_SQUARED 0.613, read-out: LUCIFERASE INFECTION ASSAY - IC50) was 5.64.

For `CC1CCC2(CC1)NC(=O)N(Cc1ccc(C(=O)Nc3ccccc3)cc1)C2=O` (stereo not drawn), the IC90 was above 10 µM. Further, under “HEPG2TOX_HILL_SLOPE 0.925, HEPG2TOX_R_SQUARED 0.33, PBLUC_HILL_SLOPE 1.44, PBLUC_R_SQUARED 0.482, read-out: LUCIFERASE INFECTION ASSAY - IC50”, the negative logarithm of the IC50 (pIC50) was 5.59.

For the compound `Cc1cc(C=C2Sc3ccccc3N2C)cc(C)[n+]1C(C)C1CC2CCC1C2` (stereo not drawn), the concentration for an effect of 90% (IC90) came to 0.589 µM. In addition, under “HEPG2TOX_HILL_SLOPE 0.905, HEPG2TOX_R_SQUARED 0.888, PBLUC_HILL_SLOPE 1.95, PBLUC_R_SQUARED 0.822, read-out: LUCIFERASE INFECTION ASSAY - IC50”, the negative logarithm of the IC50 (pIC50) is 6.72.

In the case of `FC(F)(F)c1ccc(NCCNc2ccc(C(F)(F)F)cn2)nc1`, the IC90 was 2.55 µM. Moreover, the pIC50 under setting [1] is 5.91.

Consider `O=C(C1CC1)N1CCc2nc(NCc3cccc(Oc4ccccc4)c3)ncc2C1`, for which the concentration for an effect of 90% (IC90) is 7.02 µM. In addition, for the setting “HEPG2TOX_HILL_SLOPE 1.68, HEPG2TOX_R_SQUARED 0.88, PBLUC_HILL_SLOPE 2.35, PBLUC_R_SQUARED 0.234, read-out: LUCIFERASE INFECTION ASSAY - IC50”, the negative logarithm of the IC50 (pIC50) is 5.56.

In the case of `Cc1onc(-c2c(Cl)cccc2Cl)c1C(=O)Nc1ccccc1SCc1noc(-c2cccs2)n1`, the 90% effect concentration (IC90) is above 6.07 µM. Also, under “FFLUC_HILL_SLOPE 4.47, FFLUC_R_SQUARED 0.309, read-out: LUCIFERASE INFECTION ASSAY - IC50”, the negative-log IC50 (pIC50) was below 5.22.

Consider `Cc1ccc(C)c(NC(=S)[C-](C(=O)c2ccc3c(c2)OCCO3)[n+]2ccccc2)c1`, for which the IC90 is above 10 µM. In addition, the pIC50 (PBLUC_HILL_SLOPE 1.61, PBLUC_R_SQUARED 0.831, read-out: LUCIFERASE INFECTION ASSAY - IC50) is 5.27.

With `CC(C)(C)OC(=O)N1CCc2nc(NC(=O)c3ccc(Cl)cc3F)sc2C1`, the concentration for an effect of 90% (IC90) came out at 8.96 µM. Also, under “HEPG2TOX_HILL_SLOPE 2.37, HEPG2TOX_R_SQUARED 0.812, PBLUC_HILL_SLOPE 3.49, PBLUC_R_SQUARED 0.436, read-out: LUCIFERASE INFECTION ASSAY - IC50”, the pIC50 is 5.32.

As for `CC(C)c1ccc(N(C(=O)CC(c2ccccc2)c2ccccc2)c2nc3ccccc3s2)cc1`, the IC90 was above 10 µM. The pIC50 under setting [1] is below 5.00.

For `NC(=O)c1cccc(CNc2cnn(CCOc3ccc(Cl)cc3)c(=O)c2Cl)c1`, the IC90 was above 10 µM. For the same compound, under setting [1], the pIC50 was 5.68.

`N=C(Cc1cccs1)NOC(=O)Nc1cc(Cl)cc(Cl)c1`: the IC90 is above 9.59 µM. For the same compound, the negative-log IC50 (pIC50) (PBLUC_HILL_SLOPE 2.97, PBLUC_R_SQUARED 0.445, read-out: LUCIFERASE INFECTION ASSAY - IC50) was 5.17.

On to `CSc1sc(NC(=O)Nc2ccc(Cl)cc2)cc1S(=O)(=O)C(C)C`, for which the IC90 is above 8.15 µM. Besides, the pIC50 (PBLUC_HILL_SLOPE 7.91, PBLUC_R_SQUARED 0.357, read-out: LUCIFERASE INFECTION ASSAY - IC50) was 5.17.

`C=CCn1c(SCc2c(C)noc2C)nc2scc(C3CC3)c2c1=O`: the 90% effect concentration (IC90) was found to be 0.0519 µM. For the setting “HEPG2TOX_HILL_SLOPE 0.626, HEPG2TOX_R_SQUARED 0.778, PBLUC_HILL_SLOPE 13, PBLUC_R_SQUARED 0.397, read-out: LUCIFERASE INFECTION ASSAY - IC50”, the negative-log IC50 (pIC50) is 7.36.

Take `COCCNCCOc1ccc(OCc2ccccc2)cc1`: the IC90 is above 10.9 µM. In addition, the pIC50 under setting [1] was below 4.96.

`COc1ccc(C)cc1CCNC(=O)c1cc(C2CC2)nn1-c1ccccc1`: the IC90 was above 10 µM. The negative logarithm of the IC50 (pIC50) under setting [1] is below 5.00.

Regarding `CCCn1c(NC(=O)CSc2ccc3c4c(cccc24)C(=O)c2ccccc2-3)nc2ccccc21`, the IC90 is 3.87 µM. Further, under “PBLUC_HILL_SLOPE 16.8, PBLUC_R_SQUARED 0.332, read-out: LUCIFERASE INFECTION ASSAY - IC50”, the pIC50 was 5.47.

On to `CC(C)N(C(=O)CSc1ccc(F)c(F)c1)c1ccc(Nc2ccccc2)cc1`, for which the IC90 was 6.35 µM. Where the note is “PBLUC_HILL_SLOPE 46.2, PBLUC_R_SQUARED 0.0491, read-out: LUCIFERASE INFECTION ASSAY - IC50”, the negative logarithm of the IC50 (pIC50) is 5.22.

Consider `CC(C)(C)OC(=O)NCc1ccc(C(=O)NNC(=O)c2ccccc2O)cc1`, for which the IC90 was above 10 µM. Moreover, the pIC50 under setting [1] was below 5.00.

As to `O=C(CNc1cccc(S(=O)(=O)N2CCOCC2)c1)N(C1CCCCC1)C1CCS(=O)(=O)C1` (stereo not drawn), the IC90 was above 10 µM. Moreover, the pIC50 under setting [1] was below 5.00.

Take `O=C(Nc1ccccc1)c1ccc(CN2C(=O)NC(c3ccccc3)(c3ccccc3)C2=O)cc1`: the concentration for an effect of 90% (IC90) came out at 3.94 µM. Moreover, the pIC50 (FFLUC_HILL_SLOPE 6.57, FFLUC_R_SQUARED 0.404, PBLUC_HILL_SLOPE 14.6, PBLUC_R_SQUARED 0.481, read-out: LUCIFERASE INFECTION ASSAY - IC50) is 5.47.

Turning to `CN(C)c1ccc(C(=O)Oc2ccc(-c3nnco3)cc2)cn1`, the concentration for an effect of 90% (IC90) was above 10 µM. In addition, under setting [1], the negative-log IC50 (pIC50) was below 5.00.

In the case of `N#Cc1c(Cl)nsc1NCc1cnn(Cc2ccccc2)c1`, the concentration for an effect of 90% (IC90) was 1.22 µM. The negative-log IC50 (pIC50) (FFLUC_HILL_SLOPE 12.9, FFLUC_R_SQUARED 0.244, HEPG2TOX_HILL_SLOPE 2.27, HEPG2TOX_R_SQUARED 0.949, PBLUC_HILL_SLOPE 20.5, PBLUC_R_SQUARED 0.627, read-out: LUCIFERASE INFECTION ASSAY - IC50) was 5.96.

`Cc1cc(C(=O)CN(C)S(=O)(=O)c2cccs2)c(C)n1-c1ccccn1`: the concentration for an effect of 90% (IC90) is above 10 µM. Where the note is “PBLUC_HILL_SLOPE 0.948, PBLUC_R_SQUARED 0.586, read-out: LUCIFERASE INFECTION ASSAY - IC50”, the negative-log IC50 (pIC50) is 5.69.

`CN(C)S(=O)(=O)c1ccc2oc3nnc(SCc4csc(-c5ccccc5)n4)n3c2c1`: the concentration for an effect of 90% (IC90) is above 10 µM. Moreover, the negative logarithm of the IC50 (pIC50) under setting [1] was below 5.00.

`Cn1nc(-c2ccc(/C=C(\C#N)S(C)(=O)=O)s2)cc1C(F)(F)F`: the IC90 is above 9.13 µM. Moreover, the pIC50 under setting [1] is below 5.04.

In the case of `CN(C)c1cc[n+](CC(=O)Nc2ccc(OC(F)F)cc2)cc1`, the IC90 is above 10 µM. For the setting “HEPG2TOX_HILL_SLOPE 2.17, HEPG2TOX_R_SQUARED 0.89, read-out: LUCIFERASE INFECTION ASSAY - IC50”, the pIC50 was below 5.00.

With `COc1ccc(C2C(C(=O)OCc3cccc4ccccc34)CCC(=O)N2c2ccc(C)cc2)cc1OC` (stereo not drawn), the IC90 was above 10 µM. Besides, where the note is “HEPG2TOX_HILL_SLOPE 2.17, HEPG2TOX_R_SQUARED 0.745, PBLUC_HILL_SLOPE 19.2, PBLUC_R_SQUARED 0.577, read-out: LUCIFERASE INFECTION ASSAY - IC50”, the pIC50 is 5.02.

Turning to `O=S1(=O)CC(S(=O)(=O)c2cccs2)c2ccccc21` (stereo not drawn), the concentration for an effect of 90% (IC90) was above 10.5 µM. Besides, under setting [1], the pIC50 is below 4.98.

`COc1ccc(S(=O)(=O)N(C)C)cc1NC(=O)CSc1cc(C)c2ccccc2n1`: the IC90 is above 10 µM. Also, the negative-log IC50 (pIC50) under setting [1] was below 5.00.

Consider `COc1ccc(-c2nnc(SC(C)C(=O)NC(C)c3ccc(Cl)cc3Cl)[nH]2)cc1` (stereo not drawn), for which the concentration for an effect of 90% (IC90) is above 10 µM. Moreover, for the setting “PBLUC_HILL_SLOPE 2.09, PBLUC_R_SQUARED 0.0748, read-out: LUCIFERASE INFECTION ASSAY - IC50”, the pIC50 is 5.26.

For `CC1N(C)c2cc(NC(=O)/C=C/c3ccc(F)cc3)ccc2C1(C)C` (stereo not drawn), the 90% effect concentration (IC90) was above 10 µM. Further, the pIC50 (PBLUC_HILL_SLOPE 2.49, PBLUC_R_SQUARED 0.1, read-out: LUCIFERASE INFECTION ASSAY - IC50) was 5.27.

For the compound `Cc1ccc(NC(=O)c2csc(Cc3c(Cl)cccc3Cl)n2)cc1`, the 90% effect concentration (IC90) was above 8.75 µM. The negative logarithm of the IC50 (pIC50) under setting [1] was below 5.06.

Take `CCOC(=O)c1sc(N)c(C#N)c1CSc1ncc(C(F)(F)F)cc1Cl`: the 90% effect concentration (IC90) was above 10 µM. For the setting “PBLUC_HILL_SLOPE 1.96, PBLUC_R_SQUARED 0.0831, read-out: LUCIFERASE INFECTION ASSAY - IC50”, the pIC50 was below 5.00.

Consider `c1ccc(C(CCNCc2ccco2)c2ccco2)cc1` (stereo not drawn), for which the IC90 is above 11.7 µM. The negative logarithm of the IC50 (pIC50) (HEPG2TOX_HILL_SLOPE 6.65, HEPG2TOX_R_SQUARED 0.638, PBLUC_HILL_SLOPE 2.47, PBLUC_R_SQUARED 0.734, read-out: LUCIFERASE INFECTION ASSAY - IC50) is 5.31.

Consider `Cc1ccc(C(C)C)c(OCc2ccc(C(=O)N/N=C/c3cccc(O)c3O)cc2)c1`, for which the IC90 is above 10 µM. Also, the negative-log IC50 (pIC50) (HEPG2TOX_HILL_SLOPE 2.51, HEPG2TOX_R_SQUARED 0.938, PBLUC_HILL_SLOPE 16, PBLUC_R_SQUARED 0.0407, read-out: LUCIFERASE INFECTION ASSAY - IC50) was 5.00.

For the compound `Cc1ccc(C(=O)Nc2nc(C(N)Cc3ccccc3)cs2)cc1` (stereo not drawn), the IC90 is above 9.78 µM. Under setting [1], the pIC50 is below 5.01.
